Broadly, the IC50 is the concentration that gives 50% inhibition. Read a low IC50 as inhibition by little substance.

Chain of MAPK14 (human) (Q16539 whole entry, looked up): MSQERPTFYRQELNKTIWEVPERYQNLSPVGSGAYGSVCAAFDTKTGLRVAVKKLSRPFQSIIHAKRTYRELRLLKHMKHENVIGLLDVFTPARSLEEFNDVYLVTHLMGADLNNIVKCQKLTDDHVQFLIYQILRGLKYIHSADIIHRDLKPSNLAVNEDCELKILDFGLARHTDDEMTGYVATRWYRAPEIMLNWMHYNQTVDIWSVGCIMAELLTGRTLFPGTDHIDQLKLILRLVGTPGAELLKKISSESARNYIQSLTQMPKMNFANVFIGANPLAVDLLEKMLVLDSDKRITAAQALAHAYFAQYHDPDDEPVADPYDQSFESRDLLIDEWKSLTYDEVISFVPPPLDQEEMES

The assay addresses MAPK14 (human) (UniProt Q16539). As to the kind of experiment: Assessment of MAPK14 Kinase Activity.
In turn, `Cc1ccc(C(=O)O)cc1-n1ncc(C(=O)c2ccccc2)c1N` displayed a concentration for half-maximal inhibition (IC50) of 1000 to 10000 nM.
For `CCOC(=O)c1c(C)nn(-c2cc(C(=O)NC3CC3)ccc2C)c1N` the value was less than 1000 nM.
As to `Cc1ccc(C(=O)O)cc1-n1ncc(C(=O)c2cccc(I)c2)c1N`, the concentration for half-maximal inhibition (IC50) is 1000 to 10000 nM.
Molecule `Cc1ccc(C(=O)NC2CC2)cc1-n1cnc(C(=O)c2ccc3c(c2)OCO3)c1N` had a 50% inhibitory concentration (IC50) of less than 1000 nM.
To `Cc1ccc(-c2nnc[nH]2)cc1-n1ncc(C(=O)c2ccccc2)c1N` belongs less than 1000 nM.
To `Cc1ccc(C(=O)NC2CC2)cc1-n1cnc(C(=O)C2CCOCC2)c1N` belongs less than 1000 nM.
To `CONC(=O)c1ccc(C)c(-n2ncc(C(=O)c3ccccc3)c2N)c1` belongs less than 1000 nM.
The molecule `Cc1ccc(C(=O)NC2CC2)cc1-n1ncc(C(=O)NC2CCc3ccccc32)c1N` (configuration not stated) came in with a half-maximal inhibitory concentration (IC50) of less than 1000 nM.
To `Cc1ccc(C(=O)NC2CC2)cc1-n1cnc(C(=O)C2CCCCC2)c1N` belongs less than 1000 nM; to `Cc1ccc(C(=O)NC2CC2)cc1-n1ncc(C(=O)c2ccccc2)c1N`, less than 1000 nM; to `Cc1ccc(C(=O)NC2CC2)cc1-n1ncc(C(=O)NC2CCCCC2C)c1N` (configuration not stated), less than 1000 nM.
Molecule `Cc1ccc(C(=O)NC2CC2)cc1-n1ncc(C(=O)c2cccc(I)c2)c1N` came in with a concentration for half-maximal inhibition (IC50) of less than 1000 nM.
Molecule `Cc1ccc(C(=O)NC2CC2)cc1-n1ncc(C(=O)NCC(C)(C)C)c1N` returned an IC50 of less than 1000 nM.
Turning to `CCOC(=O)c1cnn(-c2cc(C(=O)NC3CC3)ccc2C)c1N`, the IC50 is less than 1000 nM.
To `COc1nn(-c2cc(C(=O)NC3CC3)ccc2C)c(N)c1C(=O)c1ccccc1` belongs less than 1000 nM; to `Cc1ccc(C(=O)NC2CC2)cc1-n1ncc(C(=O)c2cccc(C#N)c2)c1N`, less than 1000 nM.
To `CONC(=O)c1ccc(C)c(-n2ncc(C(=O)c3cccc(I)c3)c2N)c1` belongs less than 1000 nM.
For `Cc1ccc(C(=O)NC2CC2)cc1-n1nc(OCCOCc2ccccc2)c(C(=O)c2ccccc2)c1N` the value was less than 1000 nM; for `Cc1ccc(C(=O)NC2CC2)cc1-n1ncc(C(=O)c2cccc(-c3nnco3)c2)c1N`, less than 1000 nM; for `Cc1ccc(C(=O)NC2CC2)cc1-n1ncc(C(=O)c2cccc(C3OCCO3)c2)c1N`, less than 1000 nM.
In turn, `Cc1ccc(C(=O)NC2CC2)cc1-n1ncc(C(=O)c2cccc(C=O)c2)c1N` registered an IC50 of less than 1000 nM.
`Cc1ccc(C(=O)NC2CC2)cc1-n1ncc(C(=O)c2cccc(CO)c2)c1N` had an IC50 of less than 1000 nM.
For `Cc1ccc(C(=O)NC2CC2)cc1-n1ncc(C(=O)c2cccc(OCC(O)CO)c2)c1N` (configuration not stated) the value was less than 1000 nM.
For `CCOC(=O)c1c(OCC(=O)NCc2cccc(Cl)c2)nn(-c2cc(C(=O)NC3CC3)ccc2C)c1N` the value was less than 1000 nM.
For `Cc1ccc(C(=O)NC2CC2)cc1-n1nc(OC2CCN(C(=O)OC(C)(C)C)CC2)c(C(=O)c2ccccc2)c1N` the value was less than 1000 nM.
In turn, `Cc1ccc(C(=O)NC2CC2)cc1-n1ncc(C(=O)Nc2ccccc2)c1N` had a half-maximal inhibitory concentration (IC50) of less than 1000 nM.
To `Cc1ccc(C(=O)NC2CC2)cc1-n1cnc(C(=O)c2ccccn2)c1N` belongs less than 1000 nM.
